Results: patent US20100022574A1, “Methods to Treat Pain Using an Alpha-2 Adrenergic Agonist and an Endothelin Antagonist” (EndogenX, Inc., priority 2008, published 2010)
pIC50: −log10 of the molar value.

Tests used:
[1] = cited from earlier work
[2] = cited from earlier work; remark: listed apart in the source
ETB receptors = target: T1, ETB receptors (Homo sapiens, UniProt P24530); settings: membrane preparations; read-out: IC50, inhibition of binding of ET-1 to ETB receptors; cited from earlier work
T1 sequence (P24530 27-442): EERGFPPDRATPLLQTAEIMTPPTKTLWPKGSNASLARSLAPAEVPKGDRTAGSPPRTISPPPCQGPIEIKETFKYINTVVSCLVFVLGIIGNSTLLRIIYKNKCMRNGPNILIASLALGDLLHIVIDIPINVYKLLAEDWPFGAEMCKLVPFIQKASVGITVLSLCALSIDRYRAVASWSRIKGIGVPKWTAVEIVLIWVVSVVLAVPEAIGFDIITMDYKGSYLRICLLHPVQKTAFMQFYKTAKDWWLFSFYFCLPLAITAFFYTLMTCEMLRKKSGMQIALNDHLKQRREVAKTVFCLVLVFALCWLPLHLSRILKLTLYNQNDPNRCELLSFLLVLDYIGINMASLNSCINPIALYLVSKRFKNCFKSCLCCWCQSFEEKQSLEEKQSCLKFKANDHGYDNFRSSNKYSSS

ETA receptors = target: T2, ETA receptors (Homo sapiens, UniProt P25101); settings: membrane preparations; read-out: IC50, inhibition of binding of ET-1 to ETA receptors; cited from earlier work
T2 sequence (P25101 21-427): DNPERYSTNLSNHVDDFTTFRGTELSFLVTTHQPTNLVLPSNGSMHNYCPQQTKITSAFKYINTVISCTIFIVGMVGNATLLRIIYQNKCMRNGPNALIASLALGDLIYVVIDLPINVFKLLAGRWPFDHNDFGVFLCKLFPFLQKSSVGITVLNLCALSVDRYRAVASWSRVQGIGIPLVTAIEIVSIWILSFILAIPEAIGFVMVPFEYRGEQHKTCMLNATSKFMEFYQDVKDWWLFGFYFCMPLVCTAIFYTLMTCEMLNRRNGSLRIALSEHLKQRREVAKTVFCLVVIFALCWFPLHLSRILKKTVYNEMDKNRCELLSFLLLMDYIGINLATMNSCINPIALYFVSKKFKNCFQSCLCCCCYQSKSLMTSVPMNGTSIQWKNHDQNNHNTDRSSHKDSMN

Male Swiss Webster mice = assay: Tail-flick latency (antinociception) in mice; settings: sulfisoxazole 500 mg/kg oral + morphine 4 mg/kg s.c.; AUC

4-amino-N-(3,4-dimethyloxazol-5-yl)-benzenesulfonamide [Sulfisoxazole]
solubility [1]: highly soluble | average steady state plasma concentration, mean ([2]; 500 mg oral four times a day, healthy volunteers): 63.4 µg/mL | drug excreted in urine by kidney ([2]; in 24 hours): 95% | binding to plasma proteins ([2]; in vivo): extensively bound to plasma proteins | maximum blood level (adverse reactions more frequent above) ([2]; in vivo): ≤ 200 µg/mL | pIC50 (ETB receptors): 4.66 | pIC50 (ETA receptors): 6.22 | potentiation of antinociception produced by morphine (Male Swiss Webster mice): 14%
